From US10947199B2, “Spiro and cyclic bis-benzylidene proteasome inhibitor for the treatment of cancer, diabetes and neurological disorders” (UP THERAPEUTICS, INC., priority 2017, dated 2021)
pIC50: −log10 of the molar value. Entries after “also recorded” stand apart in the source; their conditions may differ.

Legend:
[1] = system: RPMI8226; test: MTT cell viability assay, RPMI8226; assay type: cell-based; conditions: RPMI8226, Multiple Myeloma, 24 or 48 or 72 hours
Experimental: (§1) Briefly cancer cells incubated with Up compounds for the period of 24 or 48 or 72 hours and the cell viability was measured using MTT assay. IC50 of compounds listed in Table1.

[2] = system: OV2008; test: MTT cell viability assay, OV2008; assay type: cell-based; conditions: OV2008, Ovarian Cancer, 24 or 48 or 72 hours
Experimental: as §1

[3] = system: SKOV3-TR; test: MTT cell viability assay, SKOV3-TR; assay type: cell-based; conditions: for pIC50: SKOV3-TR, Ovarian Cancer (taxol resistant), MTT, 24 or 48 or 72 hours; for difference in activity between SKOV3 and its taxol resistant line (SKOV3-TR): SKOV3 vs SKOV3-TR
Experimental: as §1

[4] = system: OVCAR3; test: MTT cell viability assay, OVCAR3; assay type: cell-based; conditions: OVCAR3, Ovarian Cancer, 24 or 48 or 72 hours
Experimental: as §1

[5] = system: HeLa; test: MTT cell viability assay, HeLa; assay type: cell-based; conditions: Cervical Cancer, 24 or 48 or 72 hours
Experimental: as §1

[6] = system: ES2 cells; test: Annexin-V staining by FACS of ES2 cells; assay type: cell-based, human; conditions: 12 h
Experimental: FIG. 8: (A) CHOP-10 quantification in ES2 cells treated with Up109 for 12 h; (B) Annexin-V staining by FACS analysis of ES2 cells treated with Up109 and Bortezomib for 12 h.
(§2) Accumulation of unfolded proteins upon the inhibition of proteasome function rapidly induces endoplasmic reticulum (ER) stress. ER stress triggers an evolutionarily conserved series of signal-transduction events, which constitute the unfolded protein response (UPR). The UPR attempts to restore protein homeostasis by eliminating the accumulated unfolded proteins in the ER; however, if protein homeostasis cannot be restored, apoptosis is triggered. C/EBP homologous protein (CHOP) is elevated at the onset of UPR-induced programmed cell death.

[7] = system: OVCAR5; test: MTT cell viability assay, OVCAR5; assay type: cell-based; conditions: OVCAR5, Ovarian Cancer, 24 or 48 or 72 hours
Experimental: as §1

[8] = system: NFκB reporter in 293 cells; test: NFκB reporter assay in 293 cells stimulated with TNF-a; assay type: cell-based; conditions: 293 cells carrying NFκB reporter construct
Source text: (§3) NFκB is constitutively activated in many cancers including high grade cervical intraepithelial neoplasia (CIN) and cervical cancer.

[9] = system: HCC1806; test: MTT cell viability assay, HCC1806; assay type: cell-based; conditions: HCC1806, Triple Negative Breast Cancer, 24 or 48 or 72 hours
Experimental: as §1

[10] = Dose limiting toxicity studies; assay type: in vivo
Experimental: To identify the optimal dose that induces a clinical effect and operates with acceptable toxicity a set of experiments has been performed on female Balb/C strain mice with Up109. Individual groups of mice (n=3) were injected i.p. with increasing single doses of Up109 (3, 10, 20, 40 and 100 mg/Kg) and the endpoint evaluations included clinical observations and body weights. […] Another experiment was done with repeated i.p. doses of Up109 (40 mg/Kg, n=5) every other day for two weeks.

[11] = system: A2780 cancer cells; test: Colony formation, A2780; assay type: cell-based; conditions: corresponding to IC50 values
[12] = system: HepG2; test: MTT cell viability assay, HepG2; assay type: cell-based; conditions: HepG2, Liver Cancer, 24 or 48 or 72 hours
Experimental: as §1

[13] = system: OV2008 cancer cells; test: Colony formation, OV2008; assay type: cell-based; conditions: corresponding to IC50 values
[14] = target: T1, RPN13 (Homo sapiens, UniProt Q16186); test: RA190B probe competition assay, OV2008 cell lysate; assay type: binding; conditions: compound 25 μM, RA190B 5 μM
T1 construct: HeLa cell lysate was pretreated with Up109 or Up117; endogenous in cells; host or cells: HeLa cell lysate
Experimental: (§4) To identify the cellular target, a competition assay was performed using RA190B probe. […] We used RA190B as a probe to determine the Up compounds binding to RPN13. OV2008 cell lysate was pretreated with Up compounds (25 μM) and then subsequently treated with RA190B (5 μM). Lysate was denatured under reduced conditions and proteins were separated on a gel and probed with HRP Streptavidin.

[15] = system: proteasome (4UbFL reporter) in muscle cells; test: 4UbFL reporter in muscle of live mice, IVIS imaging; assay type: in vivo; conditions: Balb/c mice, i.p. 40 mg/Kg; imaged 4 h, 24 h and 48 h post treatment
Experimental: To test for proteasome inhibition by Up109 in vivo, muscle cells of live Balb/c mice transduced with the 4UbFL reporter DNA construct by electroporation. After i.p. injection of luciferin, the enzymic activity of luciferase in the transfected muscle tissue was visualized as bioluminescence using an IVIS imager. At two days post electroporation of the 4UbFL DNA, mice were imaged and base line luminescence recorded. The control group (n=5) of mice was treated i.p. with vehicle alone and another group (n=5) treated i.p with Up109 (40 mg/Kg). After 4 h, 24 h and 48 h post treatment mice were again imaged and luminescence was quantified (FIG. 9).

[16] = system: MM.1S; test: MTT cell viability assay, MM.1S; assay type: cell-based; conditions: Multiple Myeloma, 24 or 48 or 72 hours
Experimental: as §1

[17] = system: A2780; test: MTT cell viability assay, A2780; assay type: cell-based; conditions: A2780, Ovarian Cancer, 24 or 48 or 72 hours
Experimental: as §1

[18] = system: ES2; test: MTT cell viability assay, ES2; assay type: cell-based, human; conditions: ES2, Ovarian Cancer, 24 or 48 or 72 hours
Experimental: as §1

[19] = system: DU145; test: MTT cell viability assay, DU145; assay type: cell-based; conditions: DU145, Prostate Cancer, 24 or 48 or 72 hours
Experimental: as §1

[20] = system: SKOV3; test: MTT cell viability assay, SKOV3; assay type: cell-based; conditions: SKOV3, Ovarian Cancer, 24 or 48 or 72 hours
Experimental: as §1

[21] = target: T1, RPN13; test: RA190B probe competition assay, HeLa cell lysate; assay type: binding; conditions: HeLa cell lysate pretreated with compound
Experimental: as §4, with “compound” for “compounds”, “HeLa” for “OV2008”, “Up109 or Up117” for “Up compounds (25 μM)”, “RA190B.” for “RA190B (5 μM).”, “HRPStreptavidin.” for “HRP Streptavidin.”

[22] = system: proteasome function (4Ub-FL reporter) in 293TT cells; test: 4Ub-FL reporter assay of proteasome function in live cells; assay type: cell-based; conditions: 293TT cells expressing 4Ub-FL; for 4Ub-FL reporter stabilization / bioluminescence increase (qualitative): dose dependent
Source text: (§5) To measure proteasome function in live cells, we utilized an engineered ubiquitin-firefly (4Ub-FL) reporter in which four copies of mutant ubiquitin (ubiquitin G76V) gene are fused to the N-terminus of the firefly luciferase (FL) gene. The results of this experiment, shown in FIG. 1, reveal that the 4Ub-FL reporter protein is rapidly degraded by the proteasome.
as §5, with “The” for “The results of this experiment, shown in FIG. 1, reveal that the”, “proteasome (FIG. 6). […] Treatment of Up109 produced a greater increase in the 4Ub-FL bioluminescence in a dose dependent manner.” for “proteasome.”

[23] = system: HFF(primary human foreskin fibroblast); test: MTT cell viability assay, HFF; assay type: cell-based; conditions: Normal Cell line, 24 or 48 or 72 hours
Experimental: as §1

[24] = system: RPMI8226-R; test: MTT cell viability assay, RPMI8226-R; assay type: cell-based; conditions: Multiple Myeloma, 24 or 48 or 72 hours
Experimental: as §1

[25] = system: IkB-a in HeLa cells; test: IkB-a stabilization in HeLa cells with TNF-a; assay type: cell-based; conditions: in the presence of TNF-a
Source text: as §3

[26] = system: human ovarian cancer ES2 xenograft (ES2-Lu); test: ES2-Lu ovarian cancer xenograft, intraperitoneal; assay type: in vivo; conditions: nude female mice, 10 mg/Kg on alternate days for two weeks
Experimental: To test the efficacy of Up109 to treat the human ovarian cancer ES2 xenograft model, the luciferase-expressing ES2 cells (ES2-Lu) were inoculated into peritoneal cavity of nude female mice (i.e. orthotopically). Two days after inoculation the mice were imaged for their basal luminescence activity and then randomized into two groups (n=10). First group was treated with the vehicle and the second group was treated with Up109 (10 mg/Kg) on alternate days for two weeks. Mice were imaged after the first and second week of treatment for their luciferase activity. […] Tumor burden in the vehicle group mice was excessive and sacrificed at the end of the treatment (FIG. 10).

[27] = system: LNCaP; test: MTT cell viability assay, LNCaP; assay type: cell-based; conditions: Prostate Cancer, 24 or 48 or 72 hours
Experimental: as §1

[28] = system: HS578T; test: MTT cell viability assay, HS578T; assay type: cell-based; conditions: Triple Negative Breast Cancer, 24 or 48 or 72 hours
Experimental: as §1

[29] = system: PC-3; test: MTT cell viability assay, PC-3; assay type: cell-based; conditions: PC-3, Prostate Cancer, 24 or 48 or 72 hours
Experimental: as §1

[30] = system: K48-linked polyubiquitinated proteins in HeLa cells; test: anti-K48-linked ubiquitin immunoblot in HeLa cells; assay type: cell-based; conditions: 4 hr treatment
Source text: Accumulation of poly ubiquitinated proteins is a general phenomenon of proteasome inhibition. We examined the impact of these compounds on the levels of polyubiquitinated proteins in HeLa cells by anti-K48-linked ubiquitin immunoblot analysis.

[31] = system: CHOP-10 mRNA in ES2 cells; test: CHOP-10 mRNA expression in ES2 cells; assay type: cell-based, human; conditions: 12 h
Source text: as §2

[32] = system: MDA-MB-231; test: MTT cell viability assay, MDA-MB-231; assay type: cell-based; conditions: MDA-MB-231, Triple Negative Breast Cancer, 24 or 48 or 72 hours
Experimental: as §1

T1 sequence (Q16186 whole entry): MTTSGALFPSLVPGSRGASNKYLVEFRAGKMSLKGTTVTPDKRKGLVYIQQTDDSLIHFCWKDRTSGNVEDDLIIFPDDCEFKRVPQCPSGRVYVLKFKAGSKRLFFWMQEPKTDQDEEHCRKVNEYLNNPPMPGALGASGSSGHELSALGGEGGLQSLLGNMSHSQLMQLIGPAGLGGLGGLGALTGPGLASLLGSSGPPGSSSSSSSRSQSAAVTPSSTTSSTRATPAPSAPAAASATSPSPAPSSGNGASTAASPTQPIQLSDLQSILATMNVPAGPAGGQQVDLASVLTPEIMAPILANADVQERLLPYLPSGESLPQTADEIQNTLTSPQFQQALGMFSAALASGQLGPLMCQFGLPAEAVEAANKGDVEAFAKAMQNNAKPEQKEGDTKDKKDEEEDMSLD

SMILES	pIC50 [1]	pIC50 [2]	pIC50 [3]	difference in activity between SKOV3 and its taxol resistant line (SKOV3-TR) [3]	pIC50 [5]	pIC50 [7]	NFκB reporter activity after stimulation with TNF-a [8]	pIC50 [9]	colony formation [11]	pIC50 [12]	colony formation [13]	competition with RA190B for binding to RPN13 [14]	pIC50 [16]	pIC50 [17]	pIC50 [18]	pIC50 [19]	pIC50 [20]	competition with RA190B for binding to RPN13 [21]	increase in 4Ub-FL bioluminescence compared to before treatment [22]	4Ub-FL reporter stabilization / bioluminescence increase (qualitative) [22]	also measured
C=CC(=O)N1CCC2(CC1)C(=Cc1ccc([N+](=O)[O-])cc1)C(=O)C2=Cc1ccc([N+](=O)[O-])cc1 [Up109]	6.91	7.47	7.24	similarly active	7.12	7.72	significant dose-dependent decrease	7.38	significantly blocked colony formation	6.93	significantly blocked colony formation	Disappearance of RA190B labeling	7.46	7.89	7.66	7.11	7.35	disappearance of RA190B labeling	thirteen-fold increase	greater increase in the 4Ub-FL bioluminescence than RA190; also recorded: stabilization and an increase in luciferase activity	pIC50 [4]: 7.68; Annexin-V positive cells (apoptosis) [6]: elevation of apoptosis; toxicities/weight loss, repeated dose ([10]; Balb/C mice, i.p. 40 mg/Kg every other day for two weeks): No observable toxicities/weight loss; clinical observations and body weights, single dose ([10]; female Balb/C mice, single i.p. doses 3, 10, 20, 40 and 100 mg/Kg): No clinically apparent sign of adverse effect; 4UbFL reporter stabilization in vivo (bioluminescence) [15]: Stabilized; pIC50 [23]: < 5.90; pIC50 [24]: 7.21; stabilization of IkB-a [25]: Stabilization of IkB-a was observed; weight loss and observable side effects [26]: no weight loss and any observable side effects; tumor burden compared to the vehicle ([26]; ES2-Lu i.p.): significantly reduced the tumor burden; pIC50 [27]: 7.19; pIC50 [28]: 7.77; pIC50 [29]: 7.24; levels of K48-linked polyubiquitinated proteins [30]: dramatically increased; CHOP-10 mRNA expression [31]: rapidly up-regulated; pIC50 [32]: 7.42
Cl.N[C@@H](Cc1ccccc1)C(=O)N1C/C(=C/c2ccc(Cl)c(Cl)c2)C(=O)/C(=C\c2ccc(Cl)c(Cl)c2)C1 [RA190, reference compound]							significant dose-dependent decrease												fivefold increase		
CC(=O)O[C@H]1C(=O)[C@@]2(C)[C@H]([C@H](OC(=O)c3ccccc3)[C@]3(O)C[C@H](OC(=O)[C@H](O)[C@@H](NC(=O)c4ccccc4)c4ccccc4)C(C)=C1C3(C)C)[C@]1(OC(C)=O)CO[C@@H]1C[C@@H]2O [Taxol, reference compound]				7 fold																	
O=C(CCl)NC(Cc1ccccc1)C(=O)N1CCC2(CC1)C(=Cc1ccc([N+](=O)[O-])cc1)C(=O)C2=Cc1ccc([N+](=O)[O-])cc1 (stereo not drawn) [Up117]	6.85	7.33	6.69	similarly active	7.05	7.43	significant dose-dependent decrease	7.15	significantly blocked colony formation	6.35	significantly blocked colony formation	Disappearance of RA190B labeling	7.38	7.66	7.39	6.89	6.80	disappearance of RA190B labeling		greater increase in the 4Ub-FL bioluminescence than RA190	pIC50 [23]: < 5.90; pIC50 [24]: 7.11; stabilization of IkB-a [25]: Stabilization of IkB-a was observed; pIC50 [27]: 7.06; pIC50 [28]: 7.49; pIC50 [29]: 7.13; levels of K48-linked polyubiquitinated proteins [30]: dramatically increased; pIC50 [32]: 7.25
